Target: Dihydroorotate dehydrogenase (Helicobacter pylori)
Experiment: Inhibition of dihydroorotate dehydrogenase (DHODase) of Helicobacter pylori

| SMILES | Ki |
| --- | --- |
| O=C(NCc1cccnc1)c1cc(C(=O)Nc2ccccc2)n(-c2ccc(Cl)cc2)n1 [1-(4-Chloro-phenyl)-1H-pyrazole-3,5-dicarboxylic acid 5-phenylamide 3-[(pyridin-3-ylmethyl)-amide]] | 4 nM |
| COc1ccc(-n2nc(C(=O)NCc3ccccc3)cc2C(=O)Nc2ccc(C(=O)N3CCCC3)cc2)cc1 [1-(4-Methoxy-phenyl)-1H-pyrazole-3,5-dicarboxylic acid 3-benzylamide 5-{[4-(pyrrolidine-1-carbonyl)-phenyl]-amide}] | 26 nM |
| COc1ccc(-n2nc(C(=O)NC(c3ccccc3)c3ccccc3)cc2C(=O)NCc2ccccc2)cc1 [1-(4-Methoxy-phenyl)-1H-pyrazole-3,5-dicarboxylic acid 3-benzhydryl-amide 5-benzylamide] | 2400 nM |
| COc1ccc(-n2nc(C(=O)NCC(C)C)cc2C(=O)Nc2ccc(C(=O)N3CCCC3)cc2)cc1 [1-(4-Methoxy-phenyl)-1H-pyrazole-3,5-dicarboxylic acid 3-(isobutyl-amide) 5-{[4-(pyrrolidine-1-carbonyl)-phenyl]-amide}] | 138 nM |
| O=C(NCc1cccnc1)c1cc(C(=O)Nc2ccc(N3CCCCC3)cc2)n(-c2ccc(Cl)cc2)n1 [1-(4-Chloro-phenyl)-1H-pyrazole-3,5-dicarboxylic acid 5-[(4-piperidin-1-yl-phenyl)-amide] 3-[(pyridin-3-ylmethyl)-amide]] | 8 nM |
| O=C(NCc1ccccc1)c1cc(C(=O)Nc2ccccc2)n(-c2ccc(Cl)cc2)n1 [X1-(4-Chloro-phenyl)-1H-pyrazole-3,5-dicarboxylic acid 3-benzylamide 5-phenylamide] | 4 nM |
| COc1ccc(-n2nc(C(=O)NCc3cccnc3)cc2C(=O)Nc2ccccc2)cc1 [1-(4-Methoxy-phenyl)-1H-pyrazole-3,5-dicarboxylic acid 5-phenylamide 3-[(pyridin-3-ylmethyl)-amide]] | 12 nM |
| NC(=O)c1ccc(NC(=O)c2cc(C(=O)NCc3ccccc3)nn2-c2ccc(Cl)cc2)cc1 [1-(4-Chloro-phenyl)-1H-pyrazole-3,5-dicarboxylic acid 3-benzylamide 5-[(4-carbamoyl-phenyl)-amide]] | 6 nM |
| COc1ccc(-n2nc(C(=O)NCC3CCCO3)cc2C(=O)Nc2ccc(C(=O)N3CCCC3)cc2)cc1 (stereo unspecified) [1-(4-Methoxy-phenyl)-1H-pyrazole-3,5-dicarboxylic acid 5-{[4-(pyrrolidine-1-carbonyl)-phenyl]-amide} 3-[(tetrahydro-furan-2-ylmethyl)-amide]] | 331 nM |
| CC(C)CNC(=O)c1cc(C(=O)NCc2ccccc2)nn1-c1ccc(Cl)cc1 [1-(4-Chloro-phenyl)-1H-pyrazole-3,5-dicarboxylic acid 3-benzylamide 5-(isobutyl-amide)] | 91 nM |
| Cc1ccc(CNC(=O)c2cc(C(=O)Nc3ccccc3)n(-c3ccc(Cl)cc3)n2)cc1 [1-(4-Chloro-phenyl)-1H-pyrazole-3,5-dicarboxylic acid 3-(4-methyl-benzylamide) 5-phenylamide] | 32 nM |
